The numbers were not newly measured in patent US20060233725A1, “Non-Endocrine Disrupting Cytoprotective UV Radiation Resistant Substance” (priority 2001, published 2006), which cites them from elsewhere.

Structures are written as SMILES.

The test system of this series is cancer cells. The settings on record: recent studies on endocrine disrupting agents in sunscreen formulations.
On to `Cc1ccc(C=C2C(=O)C3(C)CCC2C3(C)C)cc1` (centres unmarked) [4-methylbenzylidene camphor], for which the “effect on growth of cancer cells” value is “made cancer cells grow more rapidly”. With `COc1ccc(C(=O)c2ccccc2)c(O)c1` [benzophenone-s], the “effect on growth of cancer cells” value is listed as “made cancer cells grow more rapidly”. `CC1CC(OC(=O)c2ccccc2O)CC(C)(C)C1` (centres unmarked) [homosalate]: the “effect on growth of cancer cells” value is reported as “made cancer cells grow more rapidly”. For the compound `CCCCC(CC)COC(=O)C=Cc1ccc(OC)cc1` (centres unmarked) [octyl methoxycinnamate], the “effect on growth of cancer cells” value was “made cancer cells grow more rapidly”. As to `CCCCC(CC)COC(=O)c1ccc(N(C)C)cc1` (centres unmarked) [octyl-dimethyl-PABA], the “effect on growth of cancer cells” value was “made cancer cells grow more rapidly”.
